In the test the test system is QT interval. The test is described as follows: Antiarrhythmic Class III action in guinea pigs after intravenous administration (QT interval prolongation in the ECG). It is filed as in vivo, Pirbright white guinea pigs. The note with it: Cavia porcellus, anesthetized with urethane, ED 20% from linear relationship between log dose and relative QT prolongation (Δ%). On the procedure:
The experimental animals used are male and female Pirbright white guinea pigs weighing from 300 to 500 g. Anesthesia is effected with 1.5 g/kg of urethane administered intraperitoneally. The substances are administered intravenously. To measure the ECG conduction times and the heart rate, the II. limb lead is recorded. The relevant parameters are the QT and PQ intervals and the heart rate. From 4 to 6 animals are used per dose. The criterion for Class III action is an increase in the QT interval compared with the values prior to administration of the substance. An increase in the PQ interval and a sharp decrease in the heart rate serve as exclusion criteria. The ED 20% is calculated from the linear relationship between log dose (mg/kg) of the substance and the relative prolongation of the QT interval (Δ%).

Structures can show the parent of a compound that is named as a salt.

On to `Nc1ccc(C(=O)N2CC3CC(CN(Cc4ccccc4)C3)C2)cc1` [Ambasilide, reference compound], for which the ED (20%) was 6.3 mg/kg.
The same measure for `CC(C)NC[C@@H](O)c1ccc(NS(C)(=O)=O)cc1` [D-sotalol, reference compound]: 3.6 mg/kg; for `O=C(c1ccc(Cl)cc1)N1CC2CC(CN(Cc3ccccc3)C2)C1` [Example 2, 7-benzyl-3-(4-chlorobenzoyl)-3,7-diazabicyclo[3.3.1]nonyl hydrochloride]: 4.6 mg/kg.
As for `Cc1ccc(NC(=O)N2CC3CC(CN(Cc4ccccc4)C3)C2)cc1` [Example 21, 7-Benzyl-3-(4-methylphenylcarbamyl)-3,7-diazabicyclo[3.3.1]nonane], the figure is 2.6 mg/kg.
`O=C(Nc1ccc(Cl)cc1)N1CC2CC(CN(Cc3ccccc3)C2)C1` [Example 23, 7-Benzyl-3-(4-chlorophenylcarbamyl)-3,7-diazabicyclo[3.3.1]nonane] had an ED (20%) of 2.4 mg/kg.
`O=C(Nc1ccccc1)N1CC2CC(CN(Cc3ccc(Cl)cc3)C2)C1` [Example 26, 3-(Phenylcarbamyl)-7-(4-chlorobenzyl)-3,7-diazabicyclo[3.3.1]nonane] returned an ED (20%) of 3.6 mg/kg.

The values above are taken from patent US4959373A, “Bispidine derivatives as class III antiarrhythmic agents” (BASF Aktiengesellschaft, priority 1987, dated 1990).
